From ChEMBL document CHEMBL1201862, “PubChem BioAssay data set” (2004)
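Cultured in 96-well plates, cells were exposed to test compound for 48 hours across five concentrations. At the GI50, growth is halved.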 Calls of active or inactive are those of the source. Cut-off read from the data, not from the text of the source: active = GI50 up to about 1.1 µM and inactive = higher.

Legend:
Assay in all cases: NCI anticancer screen, dose series, 48 h
[1] = test system: 786-0
[2] = test system: CCRF-CEM
[3] = test system: COLO 205
[4] = test system: HCC 2998
[5] = test system: HCT-15
[6] = test system: HOP-62
[7] = test system: HT-29
[8] = test system: Hs-578T
[9] = test system: IGROV-1
[10] = test system: MDA-MB-435
[11] = test system: NCI-H23
[12] = test system: NCI-H522
[13] = test system: OVCAR-8
[14] = test system: PC-3
[15] = test system: RPMI-8226
[16] = test system: SK-MEL-2
[17] = test system: SNB-75
[18] = test system: TK-10
[19] = test system: U-251
[20] = test system: DLD-1

Row | Structure (SMILES) | GI50 [1] | GI50 [2] | GI50 [3] | GI50 [4] | GI50 [5] [µM] | GI50 [6] | GI50 [7] | GI50 [8] | GI50 [9] | GI50 [10] | GI50 [11] | GI50 [12] | GI50 [13] | GI50 [14] | GI50 [15] | GI50 [16] | GI50 [17] | GI50 [18] | GI50 [19] | GI50 [20]
1 | Cc1ccc(Nc2n[nH]c(NS(=O)(=O)c3cc(C)c(Cl)cc3S)n2)cc1 | > 100 µM (inactive) | > 100 µM (inactive) | > 100 µM (inactive) | > 100 µM (inactive) | > 100 | > 100 µM (inactive) | > 100 µM (inactive) | > 100 µM (inactive) | > 100 µM (inactive) | > 100 µM (inactive) | > 100 µM (inactive) | > 100 µM (inactive) | > 100 µM (inactive) | > 100 µM (inactive) | > 100 µM (inactive) | > 100 µM (inactive) | > 100 µM (inactive) | > 100 µM (inactive) | > 100 µM (inactive) | 
2 | O=c1[nH]cc(/C=N\Nc2ccccc2)c(=O)[nH]1 | > 100 µM (inactive) | > 100 µM (inactive) | 66.2 µM (inactive) | > 100 µM (inactive) | 36.3 | > 10 µM (inactive) | 49.2 µM (inactive) | > 100 µM (inactive) | > 100 µM (inactive) | > 100 µM (inactive) | > 100 µM (inactive) | > 100 µM (inactive) | > 100 µM (inactive) | > 100 µM (inactive) | > 100 µM (inactive) | > 100 µM (inactive) | > 100 µM (inactive) | > 100 µM (inactive) | > 100 µM (inactive) | 
3 | Cc1ccc(-n2cnc3c(N)nc(N)nc32)cc1 | > 100 µM (inactive) | 43.1 µM (inactive) | > 100 µM (inactive) | 76.2 µM (inactive) | > 100 | > 100 µM (inactive) | > 100 µM (inactive) | 42.7 µM (inactive) | > 100 µM (inactive) | > 100 µM (inactive) | > 100 µM (inactive) | > 100 µM (inactive) | > 100 µM (inactive) | > 100 µM (inactive) | > 100 µM (inactive) | > 100 µM (inactive) | 1.53 µM (inactive) | 65.6 µM (inactive) | > 100 µM (inactive) | 
4 | COC(=O)c1ncc2c(=O)[nH]c3ccccc3c2c1C(=O)OC | > 100 µM (inactive) | > 100 µM (inactive) |  | > 100 µM (inactive) | > 100 | > 100 µM (inactive) | > 100 µM (inactive) |  | > 100 µM (inactive) |  | > 100 µM (inactive) |  | > 100 µM (inactive) |  | > 100 µM (inactive) | > 100 µM (inactive) | > 100 µM (inactive) | > 100 µM (inactive) |  | > 100 µM (inactive)
5 | CC(=O)NCCCCN(CCCNC(C)=O)C(=O)OCc1ccccc1 | > 100 µM (inactive) | > 100 µM (inactive) | > 100 µM (inactive) | > 100 µM (inactive) | > 100 | > 100 µM (inactive) | > 100 µM (inactive) | > 100 µM (inactive) | > 100 µM (inactive) | > 100 µM (inactive) | > 100 µM (inactive) | > 100 µM (inactive) | > 100 µM (inactive) | > 100 µM (inactive) | > 100 µM (inactive) | > 100 µM (inactive) | 19.1 µM (inactive) | > 100 µM (inactive) | > 100 µM (inactive) | 
6 | S=C1/C(=N/c2ccccc2)N(c2ccccc2)/C(=N\c2ccccn2)N1c1ccccc1 | 14.5 µM (inactive) | > 100 µM (inactive) | 10.8 µM (inactive) | 14.1 µM (inactive) | 8.18 | 16.3 µM (inactive) | 11 µM (inactive) | 14.9 µM (inactive) | 13.3 µM (inactive) | 15.2 µM (inactive) | 12.3 µM (inactive) | 1.63 µM (inactive) | 14.5 µM (inactive) | 12.8 µM (inactive) | 6.78 µM (inactive) | 11.9 µM (inactive) | 14.7 µM (inactive) | 15.5 µM (inactive) | 15.8 µM (inactive) | 
7 | CC1(C)Oc2ccccc2OC1O (centres undefined) | > 100 µM (inactive) | > 100 µM (inactive) | > 100 µM (inactive) | > 100 µM (inactive) | > 100 | > 100 µM (inactive) | > 100 µM (inactive) | > 100 µM (inactive) | > 100 µM (inactive) | > 100 µM (inactive) | > 100 µM (inactive) | > 100 µM (inactive) | > 100 µM (inactive) | > 100 µM (inactive) | > 100 µM (inactive) | > 100 µM (inactive) | > 100 µM (inactive) | > 100 µM (inactive) | > 100 µM (inactive) | 
8 | CCOC(=O)NC(=O)c1cn(CCCOC(=O)CCCCCCCCC(=O)OCCCn2cc(C(=O)NC(=O)OCC)c(=O)[nH]c2=O)c(=O)[nH]c1=O | 15.8 µM (inactive) | 3.47 µM (inactive) | 18.2 µM (inactive) | 10.3 µM (inactive) | 19.5 | 26 µM (inactive) | 34.8 µM (inactive) |  | 20.9 µM (inactive) |  | > 10 µM (inactive) |  | 23 µM (inactive) |  | 5.22 µM (inactive) |  | 32.5 µM (inactive) | 22.3 µM (inactive) | 16.7 µM (inactive) | 17.8 µM (inactive)
9 | CC(=O)Nc1ccc(-c2nnc(SCC(=O)Nc3cccc(C)c3)o2)cc1 | 12.8 µM (inactive) | 6.62 µM (inactive) | 14.8 µM (inactive) |  | 8.97 | 28.7 µM (inactive) | 12.2 µM (inactive) |  | 11.7 µM (inactive) |  | 7.55 µM (inactive) | 4.4 µM (inactive) | 16.3 µM (inactive) |  | 13.8 µM (inactive) | 12.5 µM (inactive) | 19.5 µM (inactive) | 15.8 µM (inactive) | 13.5 µM (inactive) | 10.5 µM (inactive)
10 | O=C(NO)c1cccc(OCc2ccc(Br)cc2)c1 | 2.92 µM (inactive) | 1.91 µM (inactive) | 8.11 µM (inactive) | 7.52 µM (inactive) | 0.991 | 4.97 µM (inactive) | 6.98 µM (inactive) | 13.1 µM (inactive) | 3.35 µM (inactive) | 5.73 µM (inactive) | 3.79 µM (inactive) | 1.41 µM (inactive) | 1.32 µM (inactive) | 5.89 µM (inactive) | 2.74 µM (inactive) | 11.3 µM (inactive) | 4.29 µM (inactive) | 10.5 µM (inactive) | 4.63 µM (inactive) | 
11 | CC1=C(O)C(=O)C=C2C1=CC=C1[C@@]2(C)CC[C@@]2(C)C3C[C@@H](C)C(=O)[C@@H](O)[C@]3(C)CC[C@]12C (some centres undefined) | 0.946 µM (active) | 0.33 µM (active) | 1.71 µM (inactive) | 2.95 µM (inactive) | 1.91 | 6.38 µM (inactive) | 1.97 µM (inactive) | 4.18 µM (inactive) | 1.73 µM (inactive) | 2.24 µM (inactive) | 1.97 µM (inactive) | 1.05 µM (active) | 2.39 µM (inactive) | 2.02 µM (inactive) | 1.25 µM (inactive) | 5.05 µM (inactive) | 8.38 µM (inactive) | 1.84 µM (inactive) | 1.85 µM (inactive) | 
12 | CC1/C(=N/O)CC(c2ccccc2)N(N=O)C1c1ccccc1 (centres undefined) | > 100 µM (inactive) | > 100 µM (inactive) | > 100 µM (inactive) | > 100 µM (inactive) | > 100 | > 100 µM (inactive) | > 100 µM (inactive) | > 100 µM (inactive) | > 100 µM (inactive) | > 100 µM (inactive) | > 100 µM (inactive) | > 100 µM (inactive) | > 100 µM (inactive) | > 100 µM (inactive) | > 100 µM (inactive) | > 100 µM (inactive) | 91.4 µM (inactive) | > 100 µM (inactive) | > 100 µM (inactive) | 
13 | COc1ccc2cc3c4cc(OC)c(OC)cc4ccn3c2c1 | > 100 µM (inactive) | > 100 µM (inactive) | > 100 µM (inactive) | > 100 µM (inactive) |  | > 100 µM (inactive) | > 100 µM (inactive) |  | > 100 µM (inactive) |  | > 100 µM (inactive) | > 100 µM (inactive) | > 100 µM (inactive) |  |  | > 100 µM (inactive) |  | > 100 µM (inactive) | > 100 µM (inactive) | > 100 µM (inactive)
14 | COc1ccc2c(c1)CC1Cc3cc(OC)c(OC)cc3CN1CC2 (centres undefined) | 27.2 µM (inactive) | 19.5 µM (inactive) | 23.7 µM (inactive) | 33.4 µM (inactive) | 44.7 | 71.3 µM (inactive) | 10.1 µM (inactive) | 53 µM (inactive) | 17.3 µM (inactive) | 37.9 µM (inactive) | 46.5 µM (inactive) | 34.6 µM (inactive) | 33.8 µM (inactive) | 37.4 µM (inactive) | 25.8 µM (inactive) | 70.1 µM (inactive) | 29.7 µM (inactive) | 22.2 µM (inactive) | 49.5 µM (inactive) | 
15 | O=P1(C(O)/C=C/c2ccccc2)N(Cc2ccccc2)[C@@H]2CCCC[C@H]2N1Cc1ccccc1 (some centres undefined) | 5.94 µM (inactive) | 5.19 µM (inactive) | 2.42 µM (inactive) | 3.9 µM (inactive) | 6.14 | 11.1 µM (inactive) | 3.67 µM (inactive) | 3.65 µM (inactive) | 3.41 µM (inactive) | 3.67 µM (inactive) | 4.26 µM (inactive) | 2.42 µM (inactive) | 3.74 µM (inactive) | 3.14 µM (inactive) | 2.14 µM (inactive) | 2.62 µM (inactive) | 12 µM (inactive) | 7.23 µM (inactive) | 4.21 µM (inactive) | 
16 | Cc1cc(C)c(C(=O)/C=C/c2ccccc2)c(C)c1 | 27.7 µM (inactive) | 25.4 µM (inactive) | 29 µM (inactive) |  | 16.5 | 34.3 µM (inactive) | 30.3 µM (inactive) |  | 77.4 µM (inactive) |  | 26.4 µM (inactive) | 19.1 µM (inactive) | 15.5 µM (inactive) |  | 29.8 µM (inactive) | 10.4 µM (inactive) | 40.9 µM (inactive) | 47.5 µM (inactive) | 15.9 µM (inactive) | 22.6 µM (inactive)
